Reference: ChEMBL document CHEMBL4619795, “Establishing the Structure-Activity Relationship of Daptomycin” (ACS Med Chem Lett, 2020)
The source made the active and inactive calls. The calls are words filed in the database; no cut-off is given here.

Key:
Lipid bilayer [1] = experiment: Binding affinity to POPC large unilamellar vesicles assessed as change in ellipticity […] at 50 uM in presence of phosphatidylglycerol and Ca2+ ions by circular dichroism spectroscopy
Enterococcus faecalis [2] = experiment: Antibacterial activity against Enterococcus faecalis ATCC 29212 assessed as bacterial growth inhibition in presence of 50 ug/ml calcium ions by CLSI protocol based broth microdilution method; assay type: functional
Staphylococcus aureus [3] = experiment: Antibacterial activity against methicillin-resistant Staphylococcus aureus 11 assessed as bacterial growth inhibition in presence of 50 ug/ml calcium ions by CLSI protocol based broth microdilution method; assay type: functional
Staphylococcus aureus [4] = experiment: Antibacterial activity against Staphylococcus aureus ATCC 29213 assessed as bacterial growth inhibition in presence of 50 ug/ml calcium ions by CLSI protocol based broth microdilution method; assay type: functional
Enterococcus [5] = experiment: Antibacterial activity against Enterococcus 60 assessed as bacterial growth inhibition in presence of 50 ug/ml calcium ions by CLSI protocol based broth microdilution method; assay type: functional
Enterococcus [6] = experiment: Antibacterial activity against Enterococcus 6 assessed as bacterial growth inhibition in presence of 50 ug/ml calcium ions by CLSI protocol based broth microdilution method; assay type: functional
Staphylococcus aureus [7] = experiment: Antibacterial activity against methicillin-resistant Staphylococcus aureus 86 assessed as bacterial growth inhibition in presence of 50 ug/ml calcium ions by CLSI protocol based broth microdilution method; assay type: functional
Staphylococcus aureus [8] = experiment: Antibacterial activity against methicillin-resistant Staphylococcus aureus 88 assessed as bacterial growth inhibition in presence of 50 ug/ml calcium ions by CLSI protocol based broth microdilution method; assay type: functional
Enterococcus faecalis [9] = experiment: Antibacterial activity against Streptococcus faecalis assessed as bacterial growth inhibition in presence of 50 ug/ml calcium ions by CLSI protocol based broth microdilution method; assay type: functional
Staphylococcus aureus [10] = experiment: Antibacterial activity against methicillin-resistant Staphylococcus aureus 14 assessed as bacterial growth inhibition in presence of 50 ug/ml calcium ions by CLSI protocol based broth microdilution method; assay type: functional
Lipid bilayer [11] = experiment: Binding affinity to POPC/POPG (1:1) large unilamellar vesicles assessed as change in ellipticity […] at 50 uM in presence of phosphatidylglycerol and Ca2+ ions by circular dichroism spectroscopy
Lipid bilayer [12] = experiment: Binding affinity to POPC/POPG (1:1) large unilamellar vesicles assessed as conformational changes at 50 uM in presence of phosphatidylglycerol and Ca2+ ions by circular dichroism spectroscopy
[13] = Toxicity in Galleria mellonella larvae infected with Staphylococcus aureus ATCC 43300 assessed as larvae death at 50 mg/kg measured at 36 hrs post-infection; assay type: organism-based; settings: in vivo
Staphylococcus aureus [14] = experiment: Antibacterial activity against Staphylococcus aureus ATCC 43300 infected in Galleria mellonella larvae assessed as increase in larvae survival at 50 mg/kg measured up to 48 hrs post-infection; assay type: functional, organism-based
Lipid bilayer [15] = experiment: Binding affinity to POPC large unilamellar vesicles assessed as conformational changes at 50 uM in presence of phosphatidylglycerol and Ca2+ ions by circular dichroism spectroscopy
Lipid bilayer [16] = experiment: Binding affinity to POPC/POPG (1:1) large unilamellar vesicles assessed as close proximity of tryptophan and kynurenine residues at 50 uM in presence of phosphatidylglycerol and Ca2+ ions by circular dichroism spectroscopy
Lipid bilayer [17] = experiment: Binding affinity to POPC large unilamellar vesicles assessed as close proximity of tryptophan and kynurenine residues at 50 uM in presence of phosphatidylglycerol and Ca2+ ions by circular dichroism spectroscopy
Staphylococcus aureus [18] = experiment: Bactericidal activity against Staphylococcus aureus 86 assessed as reduction in colony formation at 8 ug/ml measured at 24 hrs by time-killing assay; assay type: functional, organism-based
Staphylococcus aureus [19] = experiment: Antibacterial activity against Staphylococcus aureus ATCC 29213 assessed as decrease in mutation prevention concentration measured after 72 hrs; assay type: functional, organism-based

Row | Structure (SMILES) | Activity (Lipid bilayer [1]) | MIC (Enterococcus faecalis [2]) | MIC (Staphylococcus aureus [3]) | MIC (Staphylococcus aureus [4]) | MIC (Enterococcus [5]) | MIC (Enterococcus [6]) | MIC (Staphylococcus aureus [7]) | MIC (Staphylococcus aureus [8]) | MIC (Enterococcus faecalis [9]) | MIC (Staphylococcus aureus [10]) | Activity (Lipid bilayer [11]) | Activity (Lipid bilayer [12]) | Activity [13] | Activity (Staphylococcus aureus [14]) | Activity (Lipid bilayer [15]) | Activity (Lipid bilayer [16]) | Activity (Lipid bilayer [17]) | Activity (Staphylococcus aureus [18]) | Activity (Staphylococcus aureus [19])
1 | CCCCCCCCCC(=O)N[C@@H](Cc1c[nH]c2ccccc12)C(=O)N[C@@H](CC(N)=O)C(=O)N[C@@H](CC(=O)O)C(=O)N[C@@H]1C(=O)NCC(=O)N[C@@H](CCCN)C(=O)N[C@@H](CC(N)=O)C(=O)N[C@H](C)C(=O)N[C@@H](CC(N)=O)C(=O)NCC(=O)N[C@H](CO)C(=O)N[C@@H]([C@@H](C)CC(=O)O)C(=O)N[C@@H](CC(=O)c2ccccc2N)C(=O)O[C@@H]1C | Active | ≥ 32 µg/mL | ≥ 32 µg/mL | ≥ 32 µg/mL | ≥ 32 µg/mL | ≥ 32 µg/mL | ≥ 32 µg/mL | ≥ 32 µg/mL | ≥ 32 µg/mL | ≥ 32 µg/mL | Active | – | – | – | – | – | – | – | –
2 | CCCCCCCCCC(=O)N[C@@H](Cc1c[nH]c2ccccc12)C(=O)N[C@H](CC(N)=O)C(=O)N[C@@H](CC(=O)O)C(=O)N[C@@H]1C(=O)NCC(=O)N[C@@H](CCCN)C(=O)N[C@@H](CC(=O)O)C(=O)N[C@H](C)C(=O)N[C@@H](CC(=O)O)C(=O)NCC(=O)N[C@H](CO)C(=O)N[C@@H]([C@H](C)CC(=O)O)C(=O)N[C@@H](CC(=O)c2ccccc2N)C(=O)O[C@@H]1C | – | 4 µg/mL | 0.5 µg/mL | 0.25 µg/mL | 2 µg/mL | 2 µg/mL | 0.5 µg/mL | 0.25 µg/mL | 4 µg/mL | 0.5 µg/mL | – | Active | Toxic | inactive | Active | Active | Active | – | –
3 | CCCCCCCCCC(=O)N[C@@H](Cc1cn(C)c2ccccc12)C(=O)N[C@@H](CC(N)=O)C(=O)N[C@@H](CC(=O)O)C(=O)N[C@@H]1C(=O)NCC(=O)N[C@@H](CCCN)C(=O)N[C@@H](CC(=O)O)C(=O)N[C@H](C)C(=O)N[C@@H](CC(=O)O)C(=O)NCC(=O)N[C@H](CO)C(=O)N[C@@H]([C@@H](C)CC(=O)O)C(=O)N[C@@H](CC(=O)c2ccccc2N)C(=O)O[C@@H]1C | – | – | – | – | – | – | – | – | – | – | – | – | – | – | – | – | – | Active | Active
4 | CCCCCCCCCC(=O)N[C@@H](Cc1c[nH]c2ccccc12)C(=O)N[C@@H](CC(N)=O)C(=O)N[C@@H](CC(=O)O)C(=O)N[C@@H]1C(=O)NCC(=O)N[C@@H](CCCN)C(=O)N[C@@H](CC(=O)O)C(=O)N[C@H](C)C(=O)N[C@@H](CCC(=O)O)C(=O)NCC(=O)N[C@H](CO)C(=O)N[C@@H]([C@@H](C)CC(=O)O)C(=O)N[C@@H](CC(=O)c2ccccc2N)C(=O)O[C@@H]1C | Active | ≥ 32 µg/mL | ≥ 32 µg/mL | ≥ 32 µg/mL | ≥ 32 µg/mL | ≥ 32 µg/mL | ≥ 32 µg/mL | ≥ 32 µg/mL | ≥ 32 µg/mL | ≥ 32 µg/mL | Active | – | – | – | – | – | – | – | –
5 | CCCCCCCCCC(=O)N[C@@H](Cc1c[nH]c2ccccc12)C(=O)N[C@@H](CC(N)=O)C(=O)N[C@@H](CC(=O)O)C(=O)N[C@@H]1C(=O)NCC(=O)N[C@@H](C(C)C)C(=O)N[C@@H](CC(=O)O)C(=O)N[C@H](C)C(=O)N[C@@H](CC(=O)O)C(=O)NCC(=O)N[C@H](CO)C(=O)N[C@@H]([C@@H](C)CC(=O)O)C(=O)N[C@@H](CC(=O)c2ccccc2N)C(=O)O[C@@H]1C | – | ≥ 32 µg/mL | ≥ 32 µg/mL | 8 µg/mL | ≥ 32 µg/mL | ≥ 32 µg/mL | 8 µg/mL | 8 µg/mL | ≥ 32 µg/mL | ≥ 32 µg/mL | – | – | – | – | – | – | – | – | –
6 | C#Cc1ccc(C(=O)N[C@@H](Cc2c[nH]c3ccccc23)C(=O)N[C@@H](CC(N)=O)C(=O)N[C@@H](CC(=O)O)C(=O)N[C@@H]2C(=O)NCC(=O)N[C@@H](CCCN)C(=O)N[C@@H](CC(=O)O)C(=O)N[C@H](C)C(=O)N[C@@H](CC(=O)O)C(=O)NCC(=O)N[C@H](CO)C(=O)N[C@@H]([C@@H](C)CC(=O)O)C(=O)N[C@@H](CC(=O)c3ccccc3N)C(=O)O[C@@H]2C)cc1 | – | ≥ 32 µg/mL | ≥ 32 µg/mL | ≥ 32 µg/mL | ≥ 32 µg/mL | ≥ 32 µg/mL | ≥ 32 µg/mL | ≥ 32 µg/mL | ≥ 32 µg/mL | ≥ 32 µg/mL | – | – | – | – | – | – | – | – | –
7 | CCCCCCCCCC(=O)N[C@@H](Cc1c[nH]c2ccccc12)C(=O)N[C@@H](CC(N)=O)C(=O)N[C@@H](CC(=O)O)C(=O)N[C@@H]1C(=O)NCC(=O)N[C@@H](CCCN)C(=O)N[C@@H](CC(=O)O)C(=O)N[C@@H](C)C(=O)N[C@@H](CC(=O)O)C(=O)NCC(=O)N[C@H](CO)C(=O)N[C@@H]([C@@H](C)CC(=O)O)C(=O)N[C@@H](CC(=O)c2ccccc2N)C(=O)O[C@@H]1C | – | ≥ 64 µg/mL | ≥ 64 µg/mL | ≥ 64 µg/mL | ≥ 64 µg/mL | ≥ 64 µg/mL | ≥ 64 µg/mL | ≥ 64 µg/mL | ≥ 64 µg/mL | ≥ 64 µg/mL | – | – | – | – | – | – | – | – | –
